The source of these data is patent US20170336420A1, “METHODS AND KITS FOR TREATING CARDIOVASCULAR DISEASES” (RAPPAPORT FAMILY INSTITUTE FOR RESEARCH IN THE MEDICAL …, priority 2014, published 2017).

Read-outs that look alike come from different tables or passages of the source.

For series [1] the following is noted: all participants; increased from mean of 35 mg/dl; cited from earlier work.
For series [2] the following is noted: for HDL Y1 (mean) / LDL Y1 (mean) / TG Y1 (mean): year 1. The source says: (§1) AIM-HIGH (clinicaltrials.gov NCT00120289) was a randomized double blind clinical trial which set out to test the HDL hypothesis—that raising HDL would reduce CVD events. This hypothesis was based on epidemiological data showing that individuals with higher HDL had lower CVD. AIM-HIGH set out to raise HDL via the drug niacin. The 3414 participants in AIM HIGH were randomly assigned to receive extended release niacin 1500-2000 g/day vs placebo. All participants received simvastatin. The primary endpoint was the first event of the composite of death from coronary heart disease, nonfatal myocardial infarction, ischemic stroke, hospitalization for an acute coronary syndrome, or symptom driven coronary or cerebral revascularization.
70 Hp 1-1 and 70 Hp 2-2 DM AIM HIGH participants, with half in the niacin and half in the placebo group, were randomly selected by the AIM HIGH coordinating center for analysis for HDL metrics at baseline and one year into the study.

Series [3] deals with AIM HIGH participants. The conditions noted are these: cited from earlier work.
The test system of the next series is ApoB depleted serum. Here is the method: (§2) This AIM HIGH substudy was approved by the AIM HIGH steering committee and was designed to investigate whether the Hp phenotype influenced HDL functional metrics in DM participants in AIM HIGH. All 1140 DM participants in AIM HIGH were subjected to Hp phenotyping. Functional HDL metrics (RCT and antioxidant function) was evaluated at baseline and at one year of treatment in 70 Hp 1-1 and 70 Hp 2-2 DM individuals with half in the niacin and half in the placebo group. In 20 Hp 1-1 and 20 Hp 2-2 DM individuals the amount of Hb associated with the HDL at baseline was measured. Individuals performing all functional assays were blinded to treatment assignment of all samples used for this study.
(§3) The amount of total oxidation and HDL anti-oxidant function were assessed in apolipoprotein (apo)-B depleted serum using the fluorescent and oxidation-sensitive agent dihydrorhodamine 123 (DHR). Apo-B depleted serum was prepared using polyethylene glycol (PEG) as previously described in Asztalos BF, de la Llera-Moya M, Dallal G E, Horvath K V, Schaefer E J, Rothblat G H. Differential effects of HDL subpopulations on cellular ABCA1- and SR-BI-mediated cholesterol efflux. J Lipid Res. 2005; 46:2246-2253
(§4) Briefly-serum samples were treated with PEG solution to precipitate apoB-containing lipoproteins by adding 40 parts PEG solution (20% PEG in 200 mM glycine buffer, pH 7.4) to 100 parts serum. After a 20 min incubation, the precipitate was removed by high-speed centrifugation (10,000 rpm, 30 min, 4° C.) to obtain the PEG supernatant containing the HDL lipoprotein fraction.
(§5) Duplicates of 20 μl of apo-B-depleted serum were transferred to clear-bottom 96-well plates, and 180 μl of iron-free Hepes-buffered saline (HBS) containing 50 μM DHR was then added. Immediately after the addition of DHR, the kinetics of fluorescence increase was followed in a BMG Galaxy Fluostar microplate reader at 37° C. with a 485/538 nm excitation/emission filter pair with repeated readings every 2 minutes up to 40 minutes. Total oxidation was calculated as the rate of DHR oxidation (fluorescent units (FU)/min) for each duplicate after subtracting the rate of DHR oxidation observed using the same conditions but in the absence of serum.

The subject of series [4] is HDL. Here is the method: as §2, §3, §4, §5
HDL anti-oxidation function represents a fraction of the total oxidation prevented by HDL (in which case HDL is behaving as an antioxidant) or provoked by HDL (in which case HDL is behaving as a pro-oxidant) within each sample. To calculate HDL anti-oxidant function, HDL was depleted by immunoprecipitation from apo-B-depleted serum using anti-human apoA1 antibody and protein A/G Sepharose, before duplicates of corrected volumes of remnant apo-B- and Apo-A-depleted serum were transferred to 96-well plates and the rate of DHR oxidation measured in the identical manner and in parallel with the measurement of total oxidation as described above.

Series [5] concerns Murine macrophage J774 cells. The conditions noted are these: Hp 1-1 group, baseline vs 1 year on niacin. The method, then: Serum induced reverse cholesterol transport function and HDL antioxidant function were measured in 70 Hp 1-1 and 70 Hp 2-2 participants from the AIM HIGH study at baseline and at one year after randomization to placebo or niacin.
This AIM HIGH substudy was approved by the AIM HIGH steering committee and was designed to investigate whether the Hp phenotype influenced HDL functional metrics in DM participants in AIM HIGH. All 1140 DM participants in AIM HIGH were subjected to Hp phenotyping. Functional HDL metrics (RCT and antioxidant function) was evaluated at baseline and at one year of treatment in 70 Hp 1-1 and 70 Hp 2-2 DM individuals with half in the niacin and half in the placebo group. In 20 Hp 1-1 and 20 Hp 2-2 DM individuals the amount of Hb associated with the HDL at baseline was measured. […]
Measurement of HDL efflux capacity was performed as previously described. […] Liquid scintillation counting was then determined in 500 μl of the medium collected from each well as well as in the cells after washing the cells twice with PBS and lysing them in 0.1 N NaOH. Cholesterol efflux capacity was determined as the percentage efflux of total counts per minute in the medium divided by the total counts per minute in the medium and in the cells and after subtraction of the nonspecific efflux obtained in cells incubated in the absence of serum.

For series [6] the following is noted: patients who had a recent acute coronary syndrome; cited from earlier work.
For series [7] the following is noted: a little more than a year of treatment; cited from earlier work.
The conditions of series [8]: Hp 2-2 genotype individuals with diabetes mellitus; cited from earlier work.
In series [9] the test system is HDL. As to conditions: Hp 2-2 DM individuals; three independent studies; cited from earlier work.
The test system of series [10] is AIM HIGH participants. The series is described as follows: AIM-HIGH randomized double blind clinical trial, primary composite endpoint of CVD events, also segregated by Hp type. It is filed as in vivo, human. As to conditions: DM participants.
Excerpt: as §1, with “The 3414 participants in AIM HIGH were randomly assigned to receive extended release niacin 1500-2000 g/day vs placebo.” left out
Hp typing was performed by the inventors using polyacrylamide gel electrophoresis. Data on Hp typing was returned to the AIM HIGH coordinating center which provided the event rates in these participants segregated by Hp type and treatment (monotherapy with statins only or combination therapy with statins plus niacin).

Where [11] appears, read: Hp 1-1 niacin group, at one year vs baseline.
Where [12] appears, read: Hp 2-2 niacin group, at one year vs baseline.

For the compound `O=C(O)c1cccnc1` [niacin, pyridine-3-carboxylic acid], the “HDL, mean on treatment” value in series [1] was 42 mg/dL. Besides, the “HDL Y1 (mean)” value in series [2] (Hp 11 niacin group, HDL base 33.91) was 40.94; in series [2] (Hp 22 niacin group, HDL base 33.74), 43.29. Further, the “LDL Y1 (mean)” value in [2] (Hp 11 niacin group, LDL base 81.18) came to 67.71; in series [2] (Hp 22 niacin group, LDL base 65.91) it was 64.15. Further, the “TG Y1 (mean)” value was found to be 174.97 in series [2] (Hp 11 niacin group, TG base 193.12) and 164.50 in [2] (Hp 22 niacin group, TG base 211.88). In addition, in series [2] (both Hp 1-1 and Hp 2-2 DM individuals), the “HDL mass (in words)” value is “significant increase in HDL mass”. In addition, in the series with AIM HIGH participants [3] (all 3414 participants, extended release niacin 1500-2000 g/day, all received simvastatin, mean follow up 3 years), the “primary endpoint occurred in patients” value is 282 patients. In addition, in the series with AIM HIGH participants [3] (all participants, niacin group, all received simvastatin, mean follow up 3 years), the “primary endpoint, % of group” value is recorded as 16.4%. For the same compound, in the series on AIM HIGH participants [3] (niacin group vs placebo group, all participants), the “HR for primary endpoint” value is 1.02. Also, the “change in total oxidation (in words)” value in the series with ApoB depleted serum (Hp 1-1 individuals) is “significant decrease”; in the series with ApoB depleted serum (Hp 2-2 individuals), “significant increase in total oxidation”. Moreover, in the series with ApoB depleted serum (setting [11]), the “total oxidation decreased by” value stood at 19.1±3.4 oxidation units. Besides, in the series with ApoB depleted serum (setting [12]), the “total oxidation increased by” value is 13.4±5.0 oxidation units. For the same compound, the “change in HDL antioxidant function (in words)” value in the series with HDL [4] (Hp 1-1 individuals) is reported as “improved”; in the series with HDL [4] (Hp 1-1 individuals, listed as Niacin), “increase in HDL antioxidant function”; with HDL [4] (Hp 2-2 individuals), “worsened”; in the series with HDL [4] (Hp 2-2 individuals, listed as Niacin), “significant decline in the antioxidant function”. In addition, the “HDL antioxidant function increased by” value in the series with HDL [4] (setting [11]) was found to be 10.8±2.3 units. In addition, in the series with HDL [4] (setting [12]), the “HDL antioxidant function decreased by” value was 8.3±2.9 units. Besides, in [5], the “increase in median efflux” value worked out at 14%.

For the compound `CCC(CC)CC1(C(=O)Nc2ccccc2SC(=O)C(C)C)CCCCC1` [Dalcetrapib®, S-[2-({[1-(2-ethylbutyl)cyclohexyl]carbonyl}amino)phenyl] 2-methylpropanethioate], in series [6], the “HDL cholesterol levels (in words)” value is reported as “increase HDL cholesterol levels” and the “risk of recurrent cardiovascular events (in words)” value was “did not reduce the risk of recurrent cardiovascular events”.

`CC(C)c1c(C(=O)Nc2ccccc2)c(-c2ccccc2)c(-c2ccc(F)cc2)n1CC[C@@H](O)C[C@@H](O)CC(=O)O` [Atorvastatin®, Atorvastatin]: the deaths in series [7] is listed as 51.

vitamin E: the “risk for cardiovascular diseases (in words)” value in [8] is given as “reduces the risk for cardiovascular diseases”. In addition, in the series on HDL [9], the “RCT function (in words)” value is “restore and significantly improve RCT function”.

In the case of `CCC(C)(C)C(=O)O[C@H]1C[C@@H](C)C=C2C=C[C@H](C)[C@H](CC[C@@H]3C[C@@H](O)CC(=O)O3)[C@H]21` [Simvastatin], in the series on AIM HIGH participants [10] (HP1-1), the “% Primary Event, % of N in this category” value is listed as “(24.0%)”; the “Event Rate” value is 0.0803; the “N Primary Event” value was 23. In addition, in the series with AIM HIGH participants [10] (HP2-1), the “% Primary Event, % of N in this category” value was “(17.9%)”; the “Event Rate” value is reported as 0.0582; the “N Primary Event” value worked out at 46. In addition, in the series on AIM HIGH participants [10] (HP2-2), the “% Primary Event, % of N in this category” value is on record as “(16.3%)”; the “Event Rate” value was determined as 0.0532; the “N Primary Event” value turned out to be 33.
